Results: patent US9981951B2, “Crystalline and amorphous forms of Olaparib” (Olon S.P.A., priority 2015, dated 2018)

Columns and labels:
Assay type in all cases: physicochemical
[1] = stability of the solid form (air, moisture, heat)
[2] = solubility in various organic solvents and in water; conditions: compared with crystalline forms A and L of Olaparib
hygroscopicity = assay: hygroscopicity

## O=C(c1cc(Cc2n[nH]c(=O)c3ccccc23)ccc1F)N1CCN(C(=O)C2CC2)CC1 [4-[3-(4-cyclopropanecarbonyl-piperazine-1-carbonyl)-4-fluorobenzyl]-2H-phthalazin-2-one]
[1]; air and heat, long time (30 days)
  stability to air and heat: stable to air and heat for a long time (30 days)
[1]; water-saturated environment
  stability when exposed to a water-saturated environment: maintains its original physicochemical characteristics

## O=C(c1cc(Cc2n[nH]c(=O)c3ccccc23)ccc1F)N1CCN(C(=O)C2CC2)CC1 [amorphous form of Olaparib, 4-[3-(4-cyclopropanecarbonyl-piperazine-1-carbonyl)-4-fluorobenzyl]-2H-phthalazin-2-one]
[2]
  solubility in various organic solvents and in water: better solubility
[1]; exposed to the moisture in the air
  stability if exposed to the moisture in the air: stable
hygroscopicity
  hygroscopicity: not hygroscopic
